Measured values: ChEMBL document CHEMBL1201862, “PubChem BioAssay data set” (2004)
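Where inhibition never reached the appropriate level, the endpoint shown equals the highest concentration tested. Otherwise, values were interpolated linearly from a five-concentration, 48-hour dose response in 96-well plates. The concentration for 50% growth inhibition is given as GI50.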 Active and inactive are the calls of the source. Cut-off read from the data, not from the text of the source: active = GI50 up to about 1.1 µM and inactive = higher.

Assays:
Experiment in all cases: inhibition of tumour cell growth, NCI panel, 48 h
A549 = test system: A549
RPMI-8226 = test system: RPMI-8226
A498 = test system: A498
786-0 = test system: 786-0
SK-OV-3 = test system: SK-OV-3
MDA-MB-231 = test system: MDA-MB-231
SR = test system: SR
HCC 2998 = test system: HCC 2998
HT-29 = test system: HT-29
IGROV-1 = test system: IGROV-1
TK-10 = test system: TK-10
CCRF-CEM = test system: CCRF-CEM
UACC-257 = test system: UACC-257
NCI-H460 = test system: NCI-H460
CAKI-1 = test system: CAKI-1
T47D = test system: T47D
UACC-62 = test system: UACC-62
NCI/ADR-RES = test system: NCI/ADR-RES
XF498 = test system: XF498
DMS-273 = test system: DMS-273

Row | SMILES | GI50 (A549) | GI50 (RPMI-8226) | GI50 (A498) | GI50 (786-0) | GI50 (SK-OV-3) | GI50 (MDA-MB-231) | GI50 (SR) | GI50 (HCC 2998) | GI50 (HT-29) | GI50 (IGROV-1) | GI50 (TK-10) | GI50 (CCRF-CEM) | GI50 (UACC-257) | GI50 (NCI-H460) | GI50 (CAKI-1) | GI50 (T47D) | GI50 (UACC-62) | GI50 (NCI/ADR-RES) | GI50 (XF498) | GI50 (DMS-273)
1 | COc1ccc(C2C(=O)c3ccc(OC)cc3OC2c2cccnc2)cc1 (centres undefined) | > 100 µM (inactive) | > 100 µM (inactive) | > 100 µM (inactive) | 83.2 µM (inactive) | 43.2 µM (inactive) | > 100 µM (inactive) | > 100 µM (inactive) | > 100 µM (inactive) | > 100 µM (inactive) | > 100 µM (inactive) | 46.7 µM (inactive) | > 100 µM (inactive) | > 100 µM (inactive) | > 100 µM (inactive) | > 100 µM (inactive) | > 100 µM (inactive) | > 100 µM (inactive) | > 100 µM (inactive) |  | 
2 | Clc1ccc(C(SCc2ccccc2)SCc2ccccc2)cc1 | > 10 µM (inactive) | > 10 µM (inactive) | > 10 µM (inactive) | > 10 µM (inactive) | > 10 µM (inactive) | > 10 µM (inactive) | > 10 µM (inactive) | > 10 µM (inactive) | > 10 µM (inactive) | > 10 µM (inactive) | > 10 µM (inactive) | > 10 µM (inactive) | > 10 µM (inactive) | > 10 µM (inactive) | > 10 µM (inactive) | > 10 µM (inactive) | > 10 µM (inactive) | > 10 µM (inactive) |  | 
3 | COc1ccc2c3c1OC1C(F)C=CC4(O)C(C2)NCCC314 (centres undefined) | 7.23 µM (inactive) | 0.834 µM (active) | 4.47 µM (inactive) | 1.2 µM (inactive) | 2.92 µM (inactive) | 3.27 µM (inactive) | 0.92 µM (active) | 3.18 µM (inactive) | 2.54 µM (inactive) | 4.81 µM (inactive) | 3.51 µM (inactive) | 0.348 µM (active) | 11.1 µM (inactive) | 4.97 µM (inactive) | 0.962 µM (active) | 0.753 µM (active) | 3.37 µM (inactive) | 3.94 µM (inactive) |  | 
4 | C[C@]12CC[C@@H]3c4ccc(O)cc4CC[C@H]3[C@@H]1C/C(=C\c1ccncc1)C2=O | 19.1 µM (inactive) | 8.53 µM (inactive) | 34 µM (inactive) |  | 35.1 µM (inactive) | 41.4 µM (inactive) | 6.32 µM (inactive) | 30.6 µM (inactive) | 19.3 µM (inactive) | 15.1 µM (inactive) | 29.2 µM (inactive) | 15.3 µM (inactive) | 27.5 µM (inactive) | 9.4 µM (inactive) | 33.2 µM (inactive) | 27.2 µM (inactive) | 10.3 µM (inactive) | 17.5 µM (inactive) |  | 
5 | O=[N+]([O-])c1cccc2nc3ccccc3c(NCCNCCO)c12 | 0.00337 µM (active) | 0.00383 µM (active) | 0.0121 µM (active) | 0.00348 µM (active) | 0.0374 µM (active) | 0.017 µM (active) | 0.00112 µM (active) | 0.00217 µM (active) | 0.00361 µM (active) | 0.00198 µM (active) | 0.0385 µM (active) | 0.0158 µM (active) | 0.0154 µM (active) | 0.00184 µM (active) | 0.0178 µM (active) | 0.00819 µM (active) | 0.01 µM (active) | 0.248 µM (active) |  | 
6 | COc1cc(C2C(C(=O)O)=C(COC(C)=O)Oc3cc4c(cc32)OCO4)cc(OC)c1OC (centres undefined) | > 100 µM (inactive) | > 100 µM (inactive) |  |  | > 100 µM (inactive) |  |  |  | > 100 µM (inactive) | > 100 µM (inactive) | > 100 µM (inactive) | > 100 µM (inactive) | > 100 µM (inactive) | > 100 µM (inactive) | > 100 µM (inactive) |  | > 100 µM (inactive) |  | > 100 µM (inactive) | > 100 µM (inactive)
7 | OC(c1cc(C(F)(F)F)nc2c(Cl)cc(Cl)cc12)C1CCCCN1 (centres undefined) | 20.5 µM (inactive) | 1.95 µM (inactive) | > 36.1 µM (inactive) | 13.3 µM (inactive) | 12.3 µM (inactive) | > 22.1 µM (inactive) | 1.66 µM (inactive) | > 100 µM (inactive) |  | 6.4 µM (inactive) |  | 1.27 µM (inactive) |  | 6.82 µM (inactive) | 8.97 µM (inactive) | 5.65 µM (inactive) | > 32.6 µM (inactive) | 10.5 µM (inactive) |  | 
8 | C=C1c2c(cc3c(c2O)c(=O)c2ccccc2n3C)OC1(C)C |  | > 100 µM (inactive) | 30.9 µM (inactive) |  | 20 µM (inactive) |  |  |  | 37.7 µM (inactive) | 32.7 µM (inactive) | 77.6 µM (inactive) | > 100 µM (inactive) |  | 59 µM (inactive) | > 100 µM (inactive) |  | > 100 µM (inactive) |  | 28.6 µM (inactive) | > 100 µM (inactive)
